The target of data set [1] is 5-hydroxytryptamine receptor 2B (Homo sapiens, UniProt P41595). Kind of data set: Displacement of [3H]-LSD from recombinant human 5HT2B receptor stably expressed in HEK cell membranes measured after 90 mins by microbeta scintillation counting method.
Data set [2] concerns the target 5-hydroxytryptamine receptor 7 (Homo sapiens, UniProt P34969). Description: Displacement of [3H]-LSD from recombinant human 5HT7A receptor stably expressed in HEK cell membranes measured after 90 mins by microbeta scintillation counting method. On the technique in general: Loss of bound radioactivity is the signal in a displacement assay; it reports binding, not function.

For data set [3], the target named is Sodium-dependent dopamine transporter (Homo sapiens, UniProt Q01959). Description: Displacement of [3H]-Win35428 from human DAT expressed in stable HEK cell membranes after 90 mins by microbeta scintillation counting method.
In the next data set the target is Histamine H1 receptor (Homo sapiens, UniProt P35367). Kind of data set: Displacement of [3H]-pyrilamine from human histamine H1 receptor expressed in stable HEK cell membranes after 90 mins by microbeta scintillation counting method.
Another data set addresses Histamine H3 receptor (Homo sapiens, UniProt Q9Y5N1). Description: Displacement of [3H]-alpha-methylhistamine from recombinant human histamine H3 receptor expressed in HEK Flp-In cell membranes measured after 90 mins by microbeta scintillation counting method.
Data set [4] has as its target Muscarinic acetylcholine receptor M5 (Homo sapiens, UniProt P08912). Kind of data set: Displacement of [3H]-QNB/[3H]-NMS from human muscarinic M5 receptor expressed in stable CHO cell membranes after 90 mins by microbeta scintillation counting method.
For data set [5], the target named is Sodium-dependent noradrenaline transporter (Homo sapiens, UniProt P23975). Kind of data set: Displacement of [3H]-Nisoxetine from human NET receptor expressed in stable HEK cell membranes after 90 mins by microbeta scintillation counting method.
For the next data set, the target named is 5HT1A receptor (Homo sapiens, UniProt P08908). Kind of data set: Displacement of [3H]-Way100635 from recombinant human 5HT1A receptor stably expressed in CHO cell membranes at 10 uM measured after 90 mins by microbeta scintillation counting method relative to control. The conditions noted are these: probe [3H]-Way100635.
A further data set concerns the target 5HT1E receptor (Homo sapiens, UniProt P28566). Description: Displacement of [3H]5-HT from recombinant human 5HT1E receptor stably expressed in HEK cell membranes at 10 uM measured after 90 mins by microbeta scintillation counting method relative to control. To be noted: probe [3H]5-HT.
The target in a further data set is 5HT7A receptor (Homo sapiens, UniProt P34969). Description: Displacement of [3H]-LSD from recombinant human 5HT7A receptor stably expressed in HEK cell membranes at 10 uM measured after 90 mins by microbeta scintillation counting method relative to control. To be noted: probe [3H]-LSD.
Data set [6] deals with T1, Alpha-1B adrenergic receptor (Homo sapiens, UniProt P35368).
T1 sequence (P35368 whole entry): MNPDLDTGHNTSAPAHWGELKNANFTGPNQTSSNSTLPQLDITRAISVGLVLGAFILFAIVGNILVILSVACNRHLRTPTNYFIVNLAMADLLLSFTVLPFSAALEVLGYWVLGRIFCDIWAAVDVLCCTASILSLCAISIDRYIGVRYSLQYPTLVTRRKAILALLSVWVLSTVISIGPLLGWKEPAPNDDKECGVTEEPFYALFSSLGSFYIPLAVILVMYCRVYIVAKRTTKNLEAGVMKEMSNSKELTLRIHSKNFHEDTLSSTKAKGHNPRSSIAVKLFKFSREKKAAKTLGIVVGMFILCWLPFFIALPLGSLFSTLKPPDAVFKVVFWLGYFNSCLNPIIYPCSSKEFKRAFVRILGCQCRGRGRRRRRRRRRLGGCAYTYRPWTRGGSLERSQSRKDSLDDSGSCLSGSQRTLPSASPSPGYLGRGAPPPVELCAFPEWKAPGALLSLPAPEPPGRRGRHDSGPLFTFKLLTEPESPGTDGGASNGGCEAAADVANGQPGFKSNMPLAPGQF
Kind of data set: Displacement of [3H]-prazosin from recombinant human alpha1B adrenergic receptor transiently expressed in HEKT cell membranes at 10 uM measured after 90 mins by microbeta scintillation counting method relative to control. To be noted: probe [3H]-prazosin.

Another data set addresses dopamine D2 receptor (Homo sapiens, UniProt P14416). Description: Displacement of [3H]-N-methylspiperone from recombinant human D2 receptor stably expressed in fibroblast cell membranes at 10 uM measured after 90 mins by microbeta scintillation counting method relative to control. To be noted: probe [3H]-N-methylspiperone.
The next data set concerns the target dopamine D5 receptor (Homo sapiens, UniProt P21918). Kind of data set: Displacement of [3H]-SCH23390 from recombinant human D5 receptor transiently expressed in HEKT cell membranes at 10 uM measured after 90 mins by microbeta scintillation counting method relative to control. To be noted: probe [3H]-SCH23390.
Data set [7] has as its target dopamine transporter (DAT) (Homo sapiens, UniProt Q01959). Kind of data set: Displacement of [3H]-Win35428 from human DAT expressed in stable HEK cell membranes at 10 uM after 90 mins by microbeta scintillation counting method relative to control. To be noted: stable HEK cell membranes expressing human DAT, probe [3H]-Win35428.
The target in data set [8] is kappa opioid receptor (KOR) (Homo sapiens, UniProt P41145). Kind of data set: Displacement of [3H]-U69593 from KOR (unknown origin) at 10 uM measured after 90 mins by microbeta scintillation counting method relative to control. To be noted: probe [3H]-U69593.
The target in a further data set is muscarinic M2 receptor (Homo sapiens, UniProt P08172). Kind of data set: Displacement of [3H]-QNB/[3H]-NMS from human muscarinic M2 receptor expressed in stable CHO cell membranes at 10 uM after 90 mins by microbeta scintillation counting method relative to control. To be noted: probe [3H]-QNB/[3H]-NMS.
The target of another data set is muscarinic M4 receptor (Homo sapiens, UniProt P08173). Kind of data set: Displacement of [3H]-QNB/[3H]-NMS from human muscarinic M4 receptor expressed in stable CHO cell membranes at 10 uM after 90 mins by microbeta scintillation counting method relative to control. To be noted: probe [3H]-QNB/[3H]-NMS.
For another data set, the target named is mu opioid receptor (MOR) (Homo sapiens, UniProt P35372). Kind of data set: Displacement of [3H]-DAMGO from recombinant human MOR stably expressed in HEK cell membranes at 10 uM measured after 90 mins by microbeta scintillation counting method relative to control. The conditions noted are these: HEK cell membranes stably expressing recombinant human MOR, probe [3H]-DAMGO.

The target in data set [9] is noradrenaline transporter (NET) (Homo sapiens, UniProt P23975). Kind of data set: Displacement of [3H]-Nisoxetine from human NET receptor expressed in stable HEK cell membranes at 10 uM after 90 mins by microbeta scintillation counting method relative to control. To be noted: stable HEK cell membranes expressing human NET, probe [3H]-Nisoxetine.
In data set [10] the target is serotonin transporter (SERT) (Homo sapiens, UniProt P31645). Kind of data set: Displacement of [3H]-citalopram from human SERT receptor expressed in stable HEK cell membranes at 10 uM after 90 mins by microbeta scintillation counting method relative to control. The conditions noted are these: stable HEK cell membranes expressing human SERT, probe [3H]-citalopram.
The target of another data set is sigma 2 receptor (Homo sapiens, UniProt Q5BJF2). Kind of data set: Displacement of [3H]-DTG from sigma 2 receptor (unknown origin) at 10 uM measured after 90 mins by microbeta counting analysis relative to control. The conditions noted are these: probe [3H]-DTG.
In the next data set the target is dopamine D1 receptor (Homo sapiens, UniProt P21728). Kind of data set: in vitro. The conditions noted are these: probe [3H]-SCH23390.

The record followed here is ChEMBL document CHEMBL4402608 (J Med Chem, 2020).

SMILES strings stand for the structures.

`CCCN(CC[C@]1(O)C[C@H](NC(=O)c2ccc3ccccc3c2)C1)[C@H]1CCc2nc(N)sc2C1`: the Ki in data set [1] (read-out: Ki) was 1.18 µM; in data set [2] it was 0.77 µM; in data set [3] (read-out: Ki) it was 0.205 µM; at Histamine H1 receptor (read-out: Ki) it was 0.11 µM; on Histamine H3 receptor (read-out: Ki), 0.893 µM; in [4] (read-out: Ki) it was 2.3 µM. The Ki in data set [5] (read-out: Ki) was 0.436 µM. Besides, the inhibition at […], 10 µM was over 50% at 5HT1A receptor; under 50% on 5HT1E receptor; over 50% on 5HT7A receptor; over 50% in data set [6]; over 50% on dopamine D2 receptor; under 50% on dopamine D5 receptor. Besides, the inhibition at […], 10 µM in data set [7] was over 50%; in data set [8], over 50%; at muscarinic M2 receptor, under 50%; on muscarinic M4 receptor, over 50%; on mu opioid receptor (MOR) it was over 50%; in data set [9] it was over 50%. The inhibition at […], 10 µM is over 50% in data set [10], under 50% at sigma 2 receptor and under 50% against dopamine D1 receptor.

Turning to `CCCN[C@H]1CCc2nc(N)sc2C1` [PRAMIPEXOLE], the Ki result is “Not Active” in data set [1]; 1.19 µM in data set [2]; “Not Active” in data set [3]; “Not Active” on Histamine H1 receptor; “Not Active” at Histamine H3 receptor; “Not Active” in [4] (cho). In addition, the Ki entry in data set [5] is “Not Active”. Also, the inhibition at […], 10 µM on 5HT1A receptor was over 50%; on 5HT1E receptor, over 50%; on 5HT7A receptor it was over 50%; in [6], under 50%; on dopamine D2 receptor, over 50%; on dopamine D5 receptor, over 50%. For the same compound, the inhibition at […], 10 µM in [7] was under 50%; in [8], under 50%; at muscarinic M2 receptor it was over 50%; on muscarinic M4 receptor it was under 50%; on mu opioid receptor (MOR), under 50%; in [9] it was under 50%. Also, the figures for the inhibition at […], 10 µM (in data set [10]; on sigma 2 receptor; against dopamine D1 receptor) were under 50%, under 50% and over 50%, respectively.

As usually defined, the Ki is the equilibrium dissociation constant of an inhibitor or competing ligand from its target. The term inhibition denotes the relative decrease from the control value, in per cent.
